Measurements reported in patent publication US11851426B2, “Bicyclic amines as CDK2 inhibitors” (Incyte Corporation, priority 2019, dated 2023).
pIC50: −log10 of the molar value.

The molecules below were run against CDK2/Cyclin E1 (Homo sapiens (Human), UniProt P24941) (assay: CDK2/Cyclin E1 HTRF enzyme activity assay). Settings: 1 mM ATP; CDK2/Cyclin E1 0.25 nM; 60 minutes at room temperature.
Type: biochemical
Procedure: Example A. CDK2/Cyclin E1 HTRF Enzyme Activity Assay
CDK2/Cyclin E1 enzyme activity assays utilize full-length human CDK2 co-expressed as N-terminal GST-tagged protein with FLAG-Cyclin E1 in a baculovirus expression system (Carna Product Number 04-165). Assays were conducted in white 384-well polystyrene plates in a final reaction volume of 8 μL. CDK2/Cyclin E1 (0.25 nM) was incubated with the compounds of the Examples (40 nL serially diluted in DMSO) in the presence of ATP (50 μM or 1 mM) and 50 nM ULight™-labeled eIF4E-binding protein 1 (THR37/46) peptide (PerkinElmer) in assay buffer (containing 50 mM HEPES pH 7.5, 1 mM EGTA, 10 mM MgCl2, 2 mM DTT, 0.05 mg/mL BSA, and 0.01% Tween 20) for 60 minutes at room temperature. The reactions were stopped by the addition of EDTA and Europium-labeled anti-phospho-4E-BP1 antibody (PerkinElmer), for a final concentration of 15 mM and 1.5 nM, respectively. HTRF signals were read after 1 hour at room temperature on a PHERAstar FS plate reader (BMG Labtech). Data was analyzed with IDBS XLFit and GraphPad Prism 5.0 software using a three or four parameter dose response curve to determine IC50 for each compound.

pIC50, ≥ 7.70:
CCCOc1c(-c2cn[nH]c2)ncn2nc(NC3CCN(S(C)(=O)=O)CC3)nc12 [Example 48, N-(1-(Methylsulfonyl)piperidin-4-yl)-8-propoxy-7-(1H-pyrazol-4-yl)-[1.2.4]triazolo[1,5-c]pyrimidin-2-amine]
CS(=O)(=O)N1CCC(Nc2nc3cnc(-c4cn[nH]c4)c(N4CCC(F)(F)C4)n3n2)CC1 [Example 130, 5-(3,3-Difluoropyrrolidin-1-yl)-N-(1-(methylsulfonyl)piperidin-4-yl)-6-(1H-pyrazol-4-yl)-[1,2,4]triazolo[1,5-a]pyrazin-2-amine]
CCN(CC)CCCS(=O)(=O)N1CC[C@H](Nc2nc3c(OC(C)C)c(-c4cn[nH]c4)ncn3n2)[C@H](C)C1 [Example 60, N-((3R,4S)-1-((3-(Diethylamino)propyl)sulfonyl)-3-methylpiperidin-4-yl)-8-isopropoxy-7-(1H-pyrazol-4-yl)-[1,2,4]triazolo[1,5-c]pyrimidin-2-amine]
CS(=O)(=O)N1CCC(Nc2nc3cc(-c4cn[nH]c4)c(F)cn3n2)CC1 [Example 7, 6-fluoro-N-(1-(methylsulfonyl)piperidin-4-yl)-7-(1H-pyrazol-4-yl)-[1,2,4]triazolo[1,5-a]pyridin-2-amine]
CC1CCN(c2c(-c3cn[nH]c3)ncn3nc(NC4CCN(S(C)(=O)=O)CC4)nc23)CC1 [Example 34, 8-(4-methylpiperidin-1-yl)-N-(1-(methylsulfonyl)piperidin-4-yl)-7-(1H-pyrazol-4-yl)-[1,2,4]triazolo[1,5-c]pyrimidin-2-amine]
C[C@@H]1CN(S(C)(=O)=O)CC[C@@H]1Nc1nc2cnc(-c3cn[nH]c3)c(OC3CCOCC3)n2n1 [Example 90]
C[C@@H]1CN(S(C)(=O)=O)CC[C@@H]1Nc1nc2cnc(-c3cn[nH]c3)c(OC3CCC(F)(F)CC3)n2n1 [Example 110, 5-((4,4-Difluorocyclohexyl)oxy)-N-((3R,4S)-3-methyl-1-(methylsulfonyl)piperidin-4-yl)-6-(1H-pyrazol-4-yl)-[1,2,4]triazolo[1,5-a]pyrazin-2-amine]
CCN1CCN(CCCS(=O)(=O)N2CC[C@H](Nc3nc4c(OC(C)C)c(-c5cn[nH]c5)ncn4n3)[C@H](C)C2)CC1 [Example 62, N-((3R,4S)-1-((3-(4-Ethylpiperazin-1-yl)propyl)sulfonyl)-3-methylpiperidin-4-yl)-8-isopropoxy-7-(1H-pyrazol-4-yl)-[1,2,4]triazolo[1,5-c]pyrimidin-2-amine]
CC(C)Oc1c(-c2cn[nH]c2)ncn2nc(N[C@H]3CCN(S(=O)(=O)CCCCN4CCOCC4)C[C@H]3C)nc12 [Example 63, 8-Isopropoxy-N-((3R,4S)-3-methyl-1-((4-morpholinobutyl)sulfonyl)piperidin-4-yl)-7-(1H-pyrazol-4-yl)-[1,2,4]triazolo[1,5-c]pyrimidin-2-amine]
CS(=O)(=O)N1CCC(Nc2nc3cnc(-c4cn[nH]c4)c(N4CC[C@H](C(F)F)C4)n3n2)CC1 [Example 134, (S)-5-(3-(Difluoromethyl)pyrrolidin-1-yl)-N-(1-(methylsulfonyl)piperidin-4-yl)-6-(1H-pyrazol-4-yl)-[1,2,4]triazolo[1,5-a]pyrazin-2-amine]
CS(=O)(=O)N1CCC(Nc2nc3c(-c4cccc(C(F)(F)F)c4)c(-c4cn[nH]c4)ncn3n2)CC1 [Example 35, N-(1-(methylsulfonyl)piperidin-4-yl)-7-(1H-pyrazol-4-yl)-8-(3-(trifluoromethyl)phenyl)-[1,2,4]triazolo[1,5-c]pyrimidin-2-amine]
CS(=O)(=O)N1CCC(Nc2nc3cnc(-c4cn[nH]c4)c(OC4CC(F)(F)C4)n3n2)CC1 [Example 118, 5-(3,3-Difluorocyclobutoxy)-N-(1-(methylsulfonyl)piperidin-4-yl)-6-(1H-pyrazol-4-yl)-[1,2,4]triazolo[1,5-a]pyrazin-2-amine]
COC(=O)N1CCC(Oc2c(-c3cn[nH]c3)ccn3nc(NC4CCN(S(C)(=O)=O)CC4)nc23)CC1 [Example 18, Methyl 4-((2-((1-(methylsulfonyl)piperidin-4-yl)amino)-7-(1H-pyrazol-4-yl)-[1,2,4]triazolo[1,5-a]pyridin-8-yl)oxy)piperidine-1-carboxylate]
CS(=O)(=O)N1CCC(Nc2nc3cnc(-c4cn[nH]c4)c(N4CCC[C@H](F)C4)n3n2)CC1 [Example 129, (S)-5-(3-Fluoropiperidin-1-yl)-N-(1-(methylsulfonyl)piperidin-4-yl)-6-(1H-pyrazol-4-yl)-[1,2,4]triazolo[1,5-a]pyrazin-2-amine]
CS(=O)(=O)N1CCC(Nc2nc3c(Nc4ccccc4)c(-c4cn[nH]c4)ccn3n2)CC1 [Example 24, N^2-(1-(methylsulfonyl)piperidin-4-yl)-N^8-phenyl-7-(1H-pyrazol-4-yl)-[1,2,4]triazolo[1,5-a]pyridine-2,8-diamine]
C[C@@H]1CN(S(C)(=O)=O)CC[C@@H]1Nc1nc2cnc(-c3cn[nH]c3)c(OC3CCC3)n2n1 [Example 100, 5-Cyclobutoxy-N-((3R,4S)-3-methyl-1-(methylsulfonyl)piperidin-4-yl)-6-(1H-pyrazol-4-yl)-[1,2,4]triazolo[1,5-a]pyrazin-2-amine]
CCCCOc1c(-c2cn[nH]c2)ncc2nc(N[C@H]3CCN(S(C)(=O)=O)C[C@H]3C)nn12 [Example 103, 5-Butoxy-N-((3R,4S)-3-methyl-1-(methylsulfonyl)piperidin-4-yl)-6-(1H-pyrazol-4-yl)-[1,2,4]triazolo[1,5-a]pyrazin-2-amine]
CCCCOc1c(-c2cn[nH]c2)ncn2nc(NC3CCN(S(C)(=O)=O)CC3)nc12 [Example 47, 8-Butoxy-N-(1-(methylsulfonyl)piperidin-4-yl)-7-(1H-pyrazol-4-yl)-[1.2.4]triazolo[1,5-c]pyrimidin-2-amine]
CS(=O)(=O)N1CCC(Nc2nc3cnc(-c4cn[nH]c4)c(N4CCCCC4)n3n2)CC1 [Example 126, N-(1-(Methylsulfonyl)piperidin-4-yl)-5-(piperidin-1-yl)-6-(1H-pyrazol-4-yl)-[1,2,4]triazolo[1,5-a]pyrazin-2-amine]
[2H]C([2H])([2H])C(Oc1c(-c2cn[nH]c2)ncc2nc(N[C@H]3CCN(S(C)(=O)=O)C[C@H]3C)nn12)C([2H])([2H])[2H] [Example 138, N-((3R,4S)-3-Methyl-1-(methylsulfonyl)piperidin-4-yl)-5-((propan-2-yl-1,1,1,3,3,3-d6)oxy)-6-(1H-pyrazol-4-yl)-[1,2,4]triazolo[1,5-a]pyrazin-2-amine]
C[C@@H]1CN(S(=O)(=O)c2cn(C)cn2)CC[C@@H]1Nc1nc2ccc(-c3cn[nH]c3)c(N3CCCCC3)n2n1 [Example 86, N-((3R,4S)-3-Methyl-1-((1-methyl-1H-imidazol-4-yl)sulfonyl)piperidin-4-yl)-5-(piperidin-1-yl)-6-(1H-pyrazol-4-yl)-[1,2,4]triazolo[1,5-a]pyridin-2-amine]
CC(C)Oc1c(-c2cn[nH]c2)ncn2nc(N[C@H]3CCN(S(=O)(=O)CCCN4CCCC4)C[C@H]3C)nc12 [Example 59, 8-Isopropoxy-N-((3R,4S)-3-methyl-1-((3-(pyrrolidin-1-yl)propyl)sulfonyl)piperidin-4-yl)-7-(1H-pyrazol-4-yl)-[1,2,4]triazolo[1,5-c]pyrimidin-2-amine]
CS(=O)(=O)N1CCC(Nc2nc3c(-c4ccc(F)cc4)c(-c4cn[nH]c4)ccn3n2)CC1 [Example 25, 8-(4-fluorophenyl)-N-(1-(methylsulfonyl)piperidin-4-yl)-7-(1H-pyrazol-4-yl)-[1,2,4]triazolo[1,5-a]pyridin-2-amine]
CC(C)Oc1c(-c2cn[nH]c2)ncn2nc(N[C@H]3CCN(S(=O)(=O)CCCCNCC(F)F)C[C@H]3C)nc12 [Example 64, N-((3R,4S)-1-((4-((2,2-Difluoroethyl)amino)butyl)sulfonyl)-3-methylpiperidin-4-yl)-8-isopropoxy-7-(1H-pyrazol-4-yl)-[1,2,4]triazolo[1,5-c]pyrimidin-2-amine]
CC(C)Oc1c(-c2cn[nH]c2)ncn2nc(N[C@H]3CCN(S(=O)(=O)CCCCN(C)C)C[C@H]3C)nc12 [Example 66]
CC(C)Oc1c(-c2cn[nH]c2)ncn2nc(N[C@H]3CCN(S(C)(=O)=O)C[C@H]3C)nc12 [Example 33, 8-isopropoxy-N-((3R,4S)-3-methyl-1-(methylsulfonyl)piperidin-4-yl)-7-(1H-pyrazol-4-yl)-[1,2,4]triazolo[1,5-c]pyrimidin-2-amine]
C[C@@H]1CN(S(C)(=O)=O)CC[C@@H]1Nc1nc2ccc(-c3cn[nH]c3)c(OCC(F)F)n2n1 [Example 72, 5-(2,2-Difluoroethoxy)-N-((3R,4S)-3-methyl-1-(methylsulfonyl)piperidin-4-yl)-6-(1H-pyrazol-4-yl)-[1,2,4]triazolo[1,5-a]pyridin-2-amine]
CS(=O)(=O)N1CCC(Nc2nc3c(OCC(F)F)c(-c4cn[nH]c4)ncn3n2)CC1 [Example 45, 8-(2,2-difluoroethoxy)-N-(1-(methylsulfonyl)piperidin-4-yl)-7-(1H-pyrazol-4-yl)-[1,2,4]triazolo[1,5-c]pyrimidin-2-amine]
